Structures are written as SMILES.

Results on 21 compounds are retold here after patent US20100204203A1, “Chemical Compounds 637: Pyridopyrimidinediones as PDE4 Inhibitors” (priority 2007, published 2010).

The experiment has as its target recombinant Human Phosphodiesterase B2 (PDE4B2) (Homo sapiens, UniProt Q07343). The experiment in a line: Human Phosphodiesterase B2 Radiometric Assay (yttrium silicate SPA beads, [3H]cyclic AMP). Type of experiment: biochemical. The following applies: recombinant human PDE4B2, radiometric SPA assay, 8 nM [3H]cyclic AMP; read-out: PDE4B2 pIC50 (converted). In outline:
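Compounds were preincubated 30 min at 30 °C with 0.1 mg/mL PDE4B2 in 50 mM HEPES pH 7.5, 8.3 mM MgCl2, 1.7 mM EGTA, 0.01% Brij 35. Then 8 nM [3H]cAMP was added for 20 min, stopped with yttrium silicate SPA beads plus 18 mM ZnSO4 capturing product 5′AMP; pIC50 by curve fitting.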

recombinant Human Phosphodiesterase B2 (PDE4B2), sequence (Q07343 1-564 isoform Q07343-2): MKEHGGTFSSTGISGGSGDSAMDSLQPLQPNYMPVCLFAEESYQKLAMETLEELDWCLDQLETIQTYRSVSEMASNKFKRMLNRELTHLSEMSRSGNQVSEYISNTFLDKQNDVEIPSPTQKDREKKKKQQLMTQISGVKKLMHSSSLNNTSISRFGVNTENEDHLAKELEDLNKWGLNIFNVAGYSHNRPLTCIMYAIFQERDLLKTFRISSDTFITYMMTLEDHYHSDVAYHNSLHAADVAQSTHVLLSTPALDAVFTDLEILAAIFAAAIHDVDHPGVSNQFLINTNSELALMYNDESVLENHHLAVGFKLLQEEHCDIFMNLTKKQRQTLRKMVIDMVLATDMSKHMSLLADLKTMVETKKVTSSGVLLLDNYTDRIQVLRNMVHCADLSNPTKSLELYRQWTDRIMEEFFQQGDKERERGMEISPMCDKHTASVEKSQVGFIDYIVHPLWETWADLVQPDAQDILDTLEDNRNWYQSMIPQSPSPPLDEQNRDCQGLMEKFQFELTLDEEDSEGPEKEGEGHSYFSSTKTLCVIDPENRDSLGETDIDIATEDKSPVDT

`O=c1c2cc(F)cnc2n(-c2cccc(-c3ccc(O)cc3CN3CCOCC3)c2)c(=O)n1[C@H]1CC[C@@H](NCc2cc3ccccc3o2)CC1` [Example 279, 3-{cis-4-[(1-benzofuran-2-ylmethyl)amino]cyclohexyl}-6-fluoro-1-[4′-hydroxy-2′-(morpholin-4-ylmethyl)biphenyl-3-yl]pyrido[2,3-d]pyrimidine-2,4(1H,3H)-dione]: the IC50 was 0.0398 nM.
As for `O=c1c2cc(F)cnc2n(-c2cccc(-c3ccc(O)cc3CN3CCOCC3)c2)c(=O)n1[C@H]1CC[C@@H](NCc2cccc(F)c2O)CC1` [Example 280, 6-fluoro-3-{cis-4-[(3-fluoro-2-hydroxybenzyl)amino]cyclohexyl}-1-[4′-hydroxy-2′-(morpholin-4-ylmethyl)biphenyl-3-yl]pyrido[2,3-d]pyrimidine-2,4(1H,3H)-dione], the IC50 is 0.794 nM.
As for `O=c1c2cc(F)cnc2n(-c2cccc(-c3ccc(O)cc3CN3CCOCC3)c2)c(=O)n1[C@H]1CC[C@@H](NCc2ccc(Cl)cc2)CC1` [Example 281, 3-{cis-4-{(4-chlorobenzyl)amino]cyclohexyl}-6-fluoro-1-[4′-hydroxy-2′-(morpholin-4-ylmethyl)biphenyl-3-yl]pyrido[2,3-d]pyrimidine-2,4(1H,3H)-dione], the IC50 was 1 nM.
`O=c1c2cc(F)cnc2n(-c2cccc(-c3ccc(O)cc3CN3CCOCC3)c2)c(=O)n1[C@H]1CC[C@@H](NCc2cc(F)ccc2F)CC1` [Example 282, 3-{cis-4-[(2,5-difluorobenzyl)amino]cyclohexyl}-6-fluoro-1-[4′-hydroxy-2′-(morpholin-4-ylmethyl)biphenyl-3-yl]pyrido[2,3-d]pyrimidine-2,4(1H,3H)-dione]: the IC50 is 0.794 nM.
With `CC(C)c1ccc(CN[C@H]2CC[C@@H](n3c(=O)c4cc(F)cnc4n(-c4cccc(-c5ccc(O)cc5CN5CCOCC5)c4)c3=O)CC2)cc1` [Example 283, 6-fluoro-1-[4′-hydroxy-2′-(morpholin-4-ylmethyl)biphenyl-3-yl]-3-{cis-4-[(4-isopropylbenzyl)amino]cyclohexyl} pyrido[2,3-d]pyrimidine-2,4(1H,3H)-dione], the IC50 is 1.26 nM.
For `Cc1cccc(CN[C@H]2CC[C@@H](n3c(=O)c4cc(F)cnc4n(-c4cccc(-c5ccc(O)cc5CN5CCOCC5)c4)c3=O)CC2)n1` [Example 284, 6-fluoro-1-{4′-hydroxy-2′-(morpholin-4-ylmethyl)biphenyl-3-yl]-3-(cis-4-{[(6-methylpyridin-2-yl)methyl]amino}cyclohexyl)pyrido [2,3-d]pyrimidine-2,4(1H,3H)-dione], the IC50 was 0.0794 nM.
Regarding `O=c1c2cc(F)cnc2n(-c2cccc(-c3ccc(O)cc3CN3CCOCC3)c2)c(=O)n1[C@H]1CC[C@@H](NCc2ccccc2F)CC1` [Example 285, 6-fluoro-3-{cis-4-[(2-fluorobenzyl)amino]cyclohexyl}-1-[4′-hydroxy-2′-(morpholin-4-ylmethyl)biphenyl-3-yl]pyrido[2,3-d]pyrimidine-2,4(1H,3H)-dione], the IC50 is 0.794 nM.
For the compound `CN(Cc1cn2cc(F)ccc2n1)[C@H]1CC[C@@H](n2c(=O)c3cc(F)cnc3n(-c3cccc(-c4ccc(O)cc4CN4CCOCC4)c3)c2=O)CC1` [Example 286, 6-fluoro-3-{cis-4-[[(6-fluoroimidazo[1,2-a]pyridin-2-yl)methyl](methyl)amino]cyclohexyl}-1-[4′-hydroxy-2′-(morpholin-4-ylmethyl)biphenyl-3-yl]pyrido[2,3-d]pyrimidine-2,4(1H,3H)-dione], the IC50 is 2 nM.
Regarding `CN(C)CC(=O)N[C@H]1CC[C@@H](n2c(=O)c3cc(F)cnc3n(-c3cccc(-c4ccc(CN5CCCN(C)CC5)cc4)c3)c2=O)CC1` [Example 287, N-{cis-4-[6-fluoro-1-{4′-[(4-methyl-1,4-diazepan-1-yl)methyl]biphenyl-3-yl}-2,4-dioxo-1,4-dihydropyrido[2,3-d]pyrimidin-3(2H)-yl]cyclohexyl}-N^2,N^2-dimethylglycinamide], the IC50 is 0.631 nM.
As for `Cc1cnc(C(=O)N[C@H]2CC[C@@H](n3c(=O)c4cc(F)cnc4n(-c4cccc(-c5ccc(CN6CCN(C7CCCC7)CC6)cc5)c4)c3=O)CC2)cn1` [Example 288, N-{cis-4-[1-{4′-[(4-cyclopentylpiperazin-1-yl)methyl]biphenyl-3-yl}-6-fluoro-2,4-dioxo-1,4-dihydropyrido[2,3-d]pyrimidin-3(2H)-yl]cyclohexyl}-5-methylpyrazine-2-carboxamide], the figure is 0.0501 nM; as for `Cc1cc(C(=O)N[C@H]2CC[C@@H](n3c(=O)c4cc(F)cnc4n(-c4cccc(-c5ccc(CN6CCC(N7CCCCC7)CC6)cc5)c4)c3=O)CC2)nn1C` [Example 289, N-{cis-4-[1-[4′-(1,4′-bipiperidin-1′-ylmethyl)biphenyl-3-yl]-6-fluoro-2,4-dioxo-1,4-dihydropyrido[2,3-d]pyrimidin-3(2H)-yl]cyclohexyl}-1,5-dimethyl-1H-pyrazole-3-carboxamide], 0.0126 nM.
With `Cc1cccc(C(=O)N[C@H]2CC[C@@H](n3c(=O)c4cc(F)cnc4n(-c4cccc(-c5ccc(CN6C[C@@H](C)N[C@@H](C)C6)cc5)c4)c3=O)CC2)n1` [Example 290, N-{cis-4-[1-(4′-{[(3R,5S)-3,5-dimethylpiperazin-1-yl]methyl}biphenyl-3-yl)-6-fluoro-2,4-dioxo-1,4-dihydropyrido[2,3-d]pyrimidin-3(2H)-yl]cyclohexyl}-6-methylpyridine-2-carboxamide], the IC50 was 0.01 nM.
As for `CN1CCN(CC(=O)N[C@H]2CC[C@@H](n3c(=O)c4cc(F)cnc4n(-c4cccc(-c5ccc(CN6CCCN(C)CC6)cc5)c4)c3=O)CC2)CC1` [Example 291, N-{cis-4-[6-fluoro-1-{4′-[(4-methyl-1,4-diazepan-1-yl)methyl]biphenyl-3-yl}-2,4-dioxo-1,4-dihydropyrido[2,3-d]pyrimidin-3(2H)-yl]cyclohexyl}-2-(4-methylpiperazin-1-yl)acetamide], the IC50 is 0.2 nM.
Take `CN1CCCN(Cc2ccc(-c3cccc(-n4c(=O)n([C@H]5CC[C@@H](NC(=O)CN6CCCCC6)CC5)c(=O)c5cc(F)cnc54)c3)cc2)CC1` [Example 292, N-{cis-4-[6-fluoro-1-{4′-[(4-methyl-1,4-diazepan-1-yl)methyl]biphenyl-3-yl}-2,4-dioxo-1,4-dihydropyrido[2,3-d]pyrimidin-3(2H)-yl]cyclohexyl}-2-piperidin-1-ylacetamide]: the IC50 is 0.0316 nM.
`CN1CCCN(Cc2ccc(-c3cccc(-n4c(=O)n([C@H]5CC[C@@H](NC(=O)CCN6CCCCC6)CC5)c(=O)c5cc(F)cnc54)c3)cc2)CC1` [Example 293, N-{cis-4-[6-fluoro-1-{4′-[(4-methyl-1,4-diazepan-1-yl)methyl]biphenyl-3-yl}-2,4-dioxo-1,4-dihydropyrido[2,3-d]pyrimidin-3(2H)-yl]cyclohexyl}-3-piperidin-1-ylpropanamide]: the IC50 was 2 nM.
As for `Cc1cccc(C(=O)N[C@H]2CC[C@@H](n3c(=O)c4cc(F)cnc4n(-c4cccc(-c5ccc(CN6CCN(C7CCCC7)CC6)cc5)c4)c3=O)CC2)n1` [Example 294, N-{cis-4-[1-{4′-[(4-cyclopentylpiperazin-1-yl)methyl]biphenyl-3-yl}-6-fluoro-2,4-dioxo-1,4-dihydropyrido[2,3-d]pyrimidin-3(2H)-yl]cyclohexyl}-6-methylpyridine-2-carboxamide], the IC50 was 0.0158 nM.
As for `O=C(N[C@H]1CC[C@@H](n2c(=O)c3cc(F)cnc3n(-c3cccc(-c4ccc(CN5CCN(C6CCCC6)CC5)cc4)c3)c2=O)CC1)c1cnccn1` [Example 295, N-{cis-4-[1-{4′-[(4-cyclopentylpiperazin-1-yl)methyl]biphenyl-3-yl}-6-fluoro-2,4-dioxo-1,4-dihydropyrido[2,3-d]pyrimidin-3(2H)-yl]cyclohexyl} pyrazine-2-carboxamide], the figure is 0.1 nM; as for `O=C(N[C@H]1CC[C@@H](n2c(=O)c3cc(F)cnc3n(-c3cccc(-c4ccc(CN5CCC(N6CCCCC6)CC5)cc4)c3)c2=O)CC1)c1cnc2ccccc2n1` [Example 296, N-{cis-4-[1-[4′-(1,4′-bipiperidin-1′-ylmethyl)biphenyl-3-yl]-6-fluoro-2,4-dioxo-1,4-dihydropyrido[2,3-d]pyrimidin-3(2H)-yl]cyclohexyl} quinoxaline-2-carboxamide], 0.01 nM.
As for `Cc1cnc(C(=O)N[C@H]2CC[C@@H](n3c(=O)c4cc(F)cnc4n(-c4cccc(-c5ccc(CN6CCC(N7CCCCC7)CC6)cc5)c4)c3=O)CC2)cn1` [Example 297, N-{cis-4-[1-[4′-(1,4′-bipiperidin-1′-ylmethyl)biphenyl-3-yl]-6-fluoro-2,4-dioxo-1,4-dihydropyrido[2,3-d]pyrimidin-3(2H)-yl]cyclohexyl}-5-methylpyrazine-2-carboxamide], the IC50 was 0.0316 nM.
Turning to `O=C(N[C@H]1CC[C@@H](n2c(=O)c3cc(F)cnc3n(-c3cccc(-c4ccc(CN5CCC(N6CCCCC6)CC5)cc4)c3)c2=O)CC1)c1nc2ccccc2[nH]1` [Example 298, N-{cis-4-[1-[4′-(1,4′-bipiperidin-1′-ylmethyl)biphenyl-3-yl]-6-fluoro-2,4-dioxo-1,4-dihydropyrido[2,3-d]pyrimidin-3(2R)-yl]cyclohexyl}-1H-benzimidazole-2-carboxamide], the IC50 was 0.0316 nM.
For the compound `Cc1cccc(C(=O)N[C@H]2CC[C@@H](n3c(=O)c4cc(F)cnc4n(-c4cccc(-c5ccc(CN6CCC(N7CCCCC7)CC6)cc5)c4)c3=O)CC2)n1` [Example 299, N-{cis-4-[1-[4′-(1,4′-bipiperidin-1′-ylmethyl)biphenyl-3-yl]-6-fluoro-2,4-dioxo-1,4-dihydropyrido[2,3-d]pyrimidin-3(2H)-yl]cyclohexyl}-6-methylpyridine-2-carboxamide], the IC50 was 0.0158 nM.
